# Laboratory results taken from the supplement of paper PMC10307832.
# Tests used:
# Experiment in all cases: relative viability (nuclei count vs DMSO), 5 days (fraction); higher = more cells survive
# [1] = system: LU99A
# Procedure, shortened: (§1)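 For relative viability, nuclei counts in treated wells were divided by those in vehicle wells. Lung cancer cell lines had been pin-tool dosed in 1536-well plates the day after seeding and cultured for 5 days, then fixed and stained in one step (final 0.05% Triton X-100, 1% formaldehyde, 1 ug/ml Hoechst) and imaged at 4×. Doses were one drug alone or a fixed anchor-drug dose plus five library-drug doses (not always all listed) in √10 steps, and values are duplicate-plate medians.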
# [2] = system: NCI-H1993
# Procedure, shortened: as §1
# [3] = system: NCI-H1755
# Procedure, shortened: as §1
# [4] = system: LC-2-ad
# Procedure, shortened: as §1
# [5] = system: HCC-827
# Procedure, shortened: as §1
# [6] = system: COR-L23
# Procedure, shortened: as §1
# [7] = system: RERF-LC-KJ
# Procedure, shortened: as §1
# [8] = system: COR-L 105
# Procedure, shortened: as §1
# [9] = system: 201T
# Procedure, shortened: as §1
# [10] = system: EKVX
# Procedure, shortened: as §1
# [11] = system: HCC-15
# Procedure, shortened: as §1
# [12] = system: NCI-H1944
# Procedure, shortened: as §1
# [13] = system: NCI-H596
# Procedure, shortened: as §1
# [14] = system: NCI-H1650
# Procedure, shortened: as §1
# [15] = system: LXF-289
# Procedure, shortened: as §1
# [16] = system: NCI-H1975
# Procedure, shortened: as §1
# [17] = system: SK-LU-1
# Procedure, shortened: as §1
# [18] = system: NCI-H3122
# Procedure, shortened: as §1
# [19] = system: HARA
# Procedure, shortened: as §1
# [20] = system: NCI-H1734
# Procedure, shortened: as §1
# [21] = system: BEN
# Procedure, shortened: as §1
smiles,measurement,setting,value
O=c1[nH]c2ccccc2n1C1CCN(CCCC(c2ccc(F)cc2)c2ccc(F)cc2)CC1 [Pimozide] + CCNC(=O)c1noc(-c2cc(C(C)C)c(O)cc2O)c1-c1ccc(CN2CCOCC2)cc1 [Luminespib] (partner 0.01 µM),relative viability,[1]; first compound 0.08 µM,0.242
same,relative viability,[1]; first compound 0.253 µM,0.247
same,relative viability,[1]; first compound 0.8 µM,0.263
same,relative viability,[1]; first compound 2.53 µM,0.242
same,relative viability,[1]; first compound 8 µM,0.233
same,relative viability,[2]; first compound 0.08 µM,0.729
same,relative viability,[2]; first compound 0.253 µM,0.809
same,relative viability,[2]; first compound 0.8 µM,0.77
same,relative viability,[2]; first compound 2.53 µM,0.79
same,relative viability,[2]; first compound 8 µM,0.425
same,relative viability,[3]; first compound 0.08 µM,0.433
same,relative viability,[3]; first compound 0.253 µM,0.418
same,relative viability,[3]; first compound 0.8 µM,0.373
same,relative viability,[3]; first compound 2.53 µM,0.526
same,relative viability,[3]; first compound 8 µM,0.476
same,relative viability,[4]; first compound 0.08 µM,1.1
same,relative viability,[4]; first compound 0.253 µM,0.969
same,relative viability,[4]; first compound 0.8 µM,0.935
same,relative viability,[4]; first compound 2.53 µM,0.985
same,relative viability,[4]; first compound 8 µM,0.993
same,relative viability,[5]; first compound 0.253 µM,0.58
same,relative viability,[5]; first compound 0.8 µM,0.413
same,relative viability,[5]; first compound 2.53 µM,0.625
same,relative viability,[5]; first compound 8 µM,0.582
same,relative viability,[6]; first compound 0.08 µM,0.603
same,relative viability,[6]; first compound 0.253 µM,0.628
same,relative viability,[6]; first compound 0.8 µM,0.594
same,relative viability,[6]; first compound 2.53 µM,0.61
same,relative viability,[6]; first compound 8 µM,0.707
same,relative viability,[7]; first compound 0.08 µM,1.09
same,relative viability,[7]; first compound 0.253 µM,1.14
same,relative viability,[7]; first compound 0.8 µM,1.08
same,relative viability,[7]; first compound 2.53 µM,1.12
same,relative viability,[7]; first compound 8 µM,0.964
same,relative viability,[8]; first compound 0.253 µM,0.885
same,relative viability,[8]; first compound 0.8 µM,0.631
same,relative viability,[8]; first compound 2.53 µM,0.879
same,relative viability,[8]; first compound 8 µM,0.687
same,relative viability,[9]; first compound 0.08 µM,1.05
same,relative viability,[9]; first compound 0.253 µM,1.02
same,relative viability,[9]; first compound 0.8 µM,0.971
same,relative viability,[9]; first compound 2.53 µM,0.961
same,relative viability,[9]; first compound 8 µM,0.912
same,relative viability,[10]; first compound 0.08 µM,0.699
same,relative viability,[10]; first compound 0.253 µM,0.86
same,relative viability,[10]; first compound 0.8 µM,0.807
same,relative viability,[10]; first compound 2.53 µM,0.909
same,relative viability,[10]; first compound 8 µM,0.802
same,relative viability,[11]; first compound 0.08 µM,0.308
same,relative viability,[11]; first compound 0.253 µM,0.288
same,relative viability,[11]; first compound 0.8 µM,0.257
same,relative viability,[11]; first compound 2.53 µM,0.175
same,relative viability,[11]; first compound 8 µM,0.308
same,relative viability,[12]; first compound 0.08 µM,0.634
same,relative viability,[12]; first compound 0.253 µM,0.665
same,relative viability,[12]; first compound 0.8 µM,0.644
same,relative viability,[12]; first compound 2.53 µM,0.668
same,relative viability,[12]; first compound 8 µM,0.719
same,relative viability,[13]; first compound 0.08 µM,0.97
same,relative viability,[13]; first compound 0.253 µM,1.11
same,relative viability,[13]; first compound 0.8 µM,1.11
same,relative viability,[13]; first compound 2.53 µM,0.776
same,relative viability,[13]; first compound 8 µM,0.847
same,relative viability,[14]; first compound 0.08 µM,0.206
same,relative viability,[14]; first compound 0.253 µM,0.204
same,relative viability,[14]; first compound 0.8 µM,0.187
same,relative viability,[14]; first compound 2.53 µM,0.187
same,relative viability,[14]; first compound 8 µM,0.199
same,relative viability,[15]; first compound 0.08 µM,0.642
same,relative viability,[15]; first compound 0.253 µM,0.634
same,relative viability,[15]; first compound 0.8 µM,0.702
same,relative viability,[15]; first compound 2.53 µM,0.664
same,relative viability,[15]; first compound 8 µM,0.632
same,relative viability,[16]; first compound 0.08 µM,0.213
same,relative viability,[16]; first compound 0.253 µM,0.337
same,relative viability,[16]; first compound 0.8 µM,0.384
same,relative viability,[16]; first compound 2.53 µM,0.239
same,relative viability,[16]; first compound 8 µM,0.18
same,relative viability,[17]; first compound 0.08 µM,0.219
same,relative viability,[17]; first compound 0.253 µM,0.197
same,relative viability,[17]; first compound 0.8 µM,0.206
same,relative viability,[17]; first compound 2.53 µM,0.183
same,relative viability,[17]; first compound 8 µM,0.206
same,relative viability,[18]; first compound 0.08 µM,0.109
same,relative viability,[18]; first compound 0.253 µM,0.0961
same,relative viability,[18]; first compound 0.8 µM,0.105
same,relative viability,[18]; first compound 2.53 µM,0.0832
same,relative viability,[18]; first compound 8 µM,0.0656
same,relative viability,[19]; first compound 0.253 µM,0.949
same,relative viability,[19]; first compound 0.8 µM,0.684
same,relative viability,[19]; first compound 2.53 µM,0.568
same,relative viability,[19]; first compound 8 µM,0.795
same,relative viability,[20]; first compound 0.08 µM,0.168
same,relative viability,[20]; first compound 0.253 µM,0.17
same,relative viability,[20]; first compound 2.53 µM,0.154
same,relative viability,[20]; first compound 8 µM,0.374
same,relative viability,[21]; first compound 0.08 µM,0.3
same,relative viability,[21]; first compound 0.253 µM,0.413
same,relative viability,[21]; first compound 0.8 µM,0.324
same,relative viability,[21]; first compound 2.53 µM,0.368
same,relative viability,[21]; first compound 8 µM,0.331
Cc1cnc(-c2cnc(NCCNc3ccc(C#N)cn3)nc2-c2ccc(Cl)cc2Cl)[nH]1 + CCNC(=O)c1noc(-c2cc(C(C)C)c(O)cc2O)c1-c1ccc(CN2CCOCC2)cc1 [Luminespib] (partner 0.01 µM),relative viability,[1]; first compound 0.08 µM,0.243
same,relative viability,[1]; first compound 0.253 µM,0.382
same,relative viability,[1]; first compound 0.8 µM,0.261
same,relative viability,[1]; first compound 2.53 µM,0.234
same,relative viability,[2]; first compound 0.08 µM,0.934
same,relative viability,[2]; first compound 0.253 µM,0.932
same,relative viability,[2]; first compound 0.8 µM,0.598
same,relative viability,[2]; first compound 2.53 µM,1.27
same,relative viability,[3]; first compound 0.08 µM,0.614
same,relative viability,[3]; first compound 0.253 µM,0.327
same,relative viability,[3]; first compound 0.8 µM,0.59
same,relative viability,[3]; first compound 2.53 µM,0.385
same,relative viability,[4]; first compound 0.08 µM,0.956
same,relative viability,[4]; first compound 0.253 µM,0.683
same,relative viability,[4]; first compound 2.53 µM,0.963
same,relative viability,[5]; first compound 0.08 µM,0.719
same,relative viability,[5]; first compound 0.8 µM,0.752
same,relative viability,[5]; first compound 2.53 µM,0.564
same,relative viability,[6]; first compound 0.08 µM,0.784
same,relative viability,[6]; first compound 0.253 µM,0.578
same,relative viability,[6]; first compound 0.8 µM,0.659
same,relative viability,[6]; first compound 2.53 µM,0.621
same,relative viability,[7]; first compound 0.08 µM,1.23
same,relative viability,[7]; first compound 0.253 µM,1.12
same,relative viability,[7]; first compound 0.8 µM,1.27
same,relative viability,[7]; first compound 2.53 µM,1.32
same,relative viability,[8]; first compound 0.08 µM,0.846
same,relative viability,[8]; first compound 0.253 µM,0.648
same,relative viability,[8]; first compound 0.8 µM,0.696
same,relative viability,[8]; first compound 2.53 µM,0.654
same,relative viability,[9]; first compound 0.08 µM,1.11
same,relative viability,[9]; first compound 0.8 µM,1.06
same,relative viability,[9]; first compound 2.53 µM,1.01
same,relative viability,[10]; first compound 0.08 µM,0.85
same,relative viability,[10]; first compound 0.253 µM,0.824
same,relative viability,[10]; first compound 0.8 µM,0.911
same,relative viability,[10]; first compound 2.53 µM,0.88
same,relative viability,[11]; first compound 0.08 µM,0.303
same,relative viability,[11]; first compound 0.253 µM,0.217
same,relative viability,[11]; first compound 0.8 µM,0.318
same,relative viability,[11]; first compound 2.53 µM,0.398
same,relative viability,[12]; first compound 0.08 µM,0.831
same,relative viability,[12]; first compound 0.8 µM,0.861
same,relative viability,[12]; first compound 2.53 µM,0.678
same,relative viability,[13]; first compound 0.08 µM,1.06
same,relative viability,[13]; first compound 0.253 µM,1.03
same,relative viability,[13]; first compound 0.8 µM,1.05
same,relative viability,[13]; first compound 2.53 µM,1.24
same,relative viability,[14]; first compound 0.08 µM,0.195
same,relative viability,[14]; first compound 0.253 µM,0.207
same,relative viability,[14]; first compound 0.8 µM,0.164
same,relative viability,[14]; first compound 2.53 µM,0.193
same,relative viability,[15]; first compound 0.08 µM,0.695
same,relative viability,[15]; first compound 0.253 µM,0.605
same,relative viability,[15]; first compound 0.8 µM,0.726
same,relative viability,[15]; first compound 2.53 µM,0.665
same,relative viability,[16]; first compound 0.08 µM,0.21
same,relative viability,[16]; first compound 0.253 µM,0.252
same,relative viability,[16]; first compound 0.8 µM,0.191
same,relative viability,[16]; first compound 2.53 µM,0.189
same,relative viability,[17]; first compound 0.08 µM,0.196
same,relative viability,[17]; first compound 0.253 µM,0.238
same,relative viability,[17]; first compound 0.8 µM,0.186
same,relative viability,[17]; first compound 2.53 µM,0.213
same,relative viability,[18]; first compound 0.08 µM,0.124
same,relative viability,[18]; first compound 0.8 µM,0.0778
same,relative viability,[18]; first compound 2.53 µM,0.0737
same,relative viability,[19]; first compound 0.08 µM,0.896
same,relative viability,[19]; first compound 0.253 µM,0.568
same,relative viability,[19]; first compound 0.8 µM,0.665
same,relative viability,[19]; first compound 2.53 µM,0.709
same,relative viability,[20]; first compound 0.08 µM,0.208
same,relative viability,[20]; first compound 0.253 µM,0.199
same,relative viability,[20]; first compound 0.8 µM,0.144
same,relative viability,[20]; first compound 2.53 µM,0.23
same,relative viability,[21]; first compound 0.08 µM,0.338
same,relative viability,[21]; first compound 0.253 µM,0.612
same,relative viability,[21]; first compound 0.8 µM,0.702
same,relative viability,[21]; first compound 2.53 µM,0.501
